Drawing on patent US11472811B2, “Pyrazolotriazolopyrimidine derivatives as A2A receptor antagonist” (BEIGENE, LTD., priority 2018, dated 2022), this text covers IC50 for 25 compounds.

For orientation: IC50 means the concentration that inhibits the measured activity by half. Read a high IC50 as lower potency.

This experiment has as its target human A2A receptor (A2AR) (Homo sapiens (Human), UniProt P29274). Description: Luciferase reporter assay (HEK293-A2AR-luc2p/CRE/Hygro cells). It counts as cell-based. Conditions: 3 nM CGS21680, 5 h incubation. As to the method:
HEK293 cells were maintained in Dulbecco's modified Eagle's medium (DMEM, Gibco) supplemented with 10% fetal bovine serum (FBS, Thermo Scientific), 100 units/mL penicillin (Gibco), and 0.1 mg/mL streptomycin (Gibco) in a humidified 37° C. environment with 5% CO2. Plasmid encoding wild-type human A2A receptor (A2AR) (in pcDNA3.1) was synthesized by Genscript (Nanjing, China). Transfection of the plasmids was performed in 6-well plates with 4×10^5 cells using Lipofectamin 2000 (ThermoFisher Scientific) according to the instruction of the manufacturer. Cell clones that stably express A2AR were established and maintained in the same complete medium as the HEK293 cells in addition of G-418 (Gibico). Expression level of A2AR in each single cell clone was determined using immunoblotting and FACS method. HEK293-A2AR stable cells were then transfected with pGL4.29[luc2P/CRE/Hygro] (Promega) luciferase reporter plasmid for establishing the HEK293-A2AR-luc2p/CRE/Hygro stable cell line.
HEK293-A2AR-luc2p/CRE/Hygro cells were seeded at a density of 5,000 cells/well in DMEM with 1% FBS and 1 U/mL adenosine deaminase (ADA) (Sigma). After 18 h, the cells were treated with 3 nM CGS21680 plus a series dilution of A2AR antagonist, the compounds disclosed herein at the concentration of 0.1˜10000 nM, prepared in DMEM with 1% FBS. After 5 h incubation, the luciferase activity in cells were measured using the Bright-Glo Luciferase Assay System (Promega) according to manufacturer's instructions. The luminescence signal was measured using a PHERAstar FS plate reader (BMG Labtech). […] Maximal luminescence intensity was determined in the presence of 3 nM CGS21680 and was set as 100%. The IC50 value was calculated from a dose dependent inhibition curve across the range of compound concentrations.
(A reporter such as luciferase makes a cellular process visible.)

human A2A receptor (A2AR), sequence (P29274 whole entry): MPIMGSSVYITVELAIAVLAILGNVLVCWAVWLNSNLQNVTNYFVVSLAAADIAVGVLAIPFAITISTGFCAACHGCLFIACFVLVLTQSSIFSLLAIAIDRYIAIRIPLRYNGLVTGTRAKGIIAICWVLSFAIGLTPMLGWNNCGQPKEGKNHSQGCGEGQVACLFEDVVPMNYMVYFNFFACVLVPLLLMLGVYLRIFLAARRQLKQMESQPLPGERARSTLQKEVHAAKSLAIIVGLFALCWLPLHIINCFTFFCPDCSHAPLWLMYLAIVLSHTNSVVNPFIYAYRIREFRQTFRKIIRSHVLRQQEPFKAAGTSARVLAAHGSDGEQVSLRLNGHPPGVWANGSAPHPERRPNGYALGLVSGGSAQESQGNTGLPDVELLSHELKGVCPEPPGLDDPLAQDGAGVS

`CC(C)(C(=O)NCC1(O)COC1)n1ncc2c1nc(N)n1nc(-c3ccco3)nc21` [Example 138, 2-(5-amino-2-(furan-2-yl)-7H-pyrazolo[4,3-e][1,2,4]triazolo[1,5-c]pyrimidin-7-yl)-N-((3-hydroxyoxetan-3-yl)methyl)-2-methylpropanamide] displayed a concentration for half-maximal inhibition (IC50) of 33.2 nM.

For `COc1ccnc(CNC(=O)C(C)(c2ccccc2)n2ncc3c2nc(N)n2nc(-c4ccco4)nc32)c1` (stereo not shown) [Example 114, 2-(5-amino-2-(furan-2-yl)-7H-pyrazolo[4,3-e][1,2,4]triazolo[1,5-c]pyrimidin-7-yl)-N-((4-methoxypyridin-2-yl)methyl)-2-phenylpropanamide], half-maximal inhibition (IC50) was put at 3.3 nM.

On to `Nc1nc2c(cnn2C2(C(=O)NCC3(O)COC3)CCCc3ccccc32)c2nc(-c3ccco3)nn12` (stereo not shown) [Example 93, 1-(5-amino-2-(furan-2-yl)-7H-pyrazolo[4,3-e][1,2,4]triazolo[1,5-c]pyrimidin-7-yl)-N-((3-hydroxyoxetan-3-yl)methyl)-1,2,3,4-tetrahydronaphthalene-1-carboxamide], for which the 50% inhibitory concentration (IC50) came out at 3.8 nM.

`Nc1nc2c(cnn2C(C(=O)Nc2ccccc2)c2ccccc2)c2nc(-c3ccco3)nn12` (stereo not shown) [Example 3, 2-(5-amino-2-(furan-2-yl)-7H-pyrazolo[4,3-e][1,2,4]triazolo[1,5-c]pyrimidin-7-yl)-N,2-diphenylacetamide] came in with an IC50 of 5.2 nM.

As for `COc1ccccc1C(C)(C(=O)N[C@H]1CC[C@](C)(O)CC1)n1ncc2c1nc(N)n1nc(-c3ccco3)nc21` (stereo partly drawn) [Example 140, 2-(5-amino-2-(furan-2-yl)-7H-pyrazolo[4,3-e][1,2,4]triazolo[1,5-c]pyrimidin-7-yl)-N-((cis)-4-hydroxy-4-methylcyclohexyl)-2-(2-methoxyphenyl)propanamide], the half-inhibitory concentration (IC50) is 1.2 nM.

In the case of `Cc1cccc(CNC(=O)[C@@](C)(c2ccccc2)n2ncc3c2nc(N)n2nc(-c4ccco4)nc32)n1` [Example 108B, (R)-2-(5-amino-2-(furan-2-yl)-7H-pyrazolo[4,3-e][1,2,4]triazolo[1,5-c]pyrimidin-7-yl)-N-((6-methylpyridin-2-yl)methyl)-2-phenylpropanamide], half-maximal inhibition (IC50) was put at 2.5 nM.

`Nc1nc2c(cnn2C(C(=O)N[C@@H]2CCC[C@@H]2O)c2ccccc2)c2nc(-c3ccco3)nn12` (stereo partly drawn) [Example 90, 2-(5-amino-2-(furan-2-yl)-7H-pyrazolo[4,3-e][1,2,4]triazolo[1,5-c]pyrimidin-7-yl)-N-((1R,2S)-2-hydroxycyclopentyl)-2-phenylacetamide] displayed an IC50 of 6.9 nM.

`CN1CCN(CCNC(=O)C(C)(c2ccccc2)n2ncc3c2nc(N)n2nc(-c4ccco4)nc32)CC1` (stereo not shown) [Example 147, 2-(5-amino-2-(furan-2-yl)-7H-pyrazolo[4,3-e][1,2,4]triazolo[1,5-c]pyrimidin-7-yl)-N-(2-(4-methylpiperazin-1-yl)ethyl)-2-phenylpropanamide] gave a half-inhibitory concentration (IC50) of 24.7 nM.

Compound `CC(C(=O)NCc1cccc(C2(O)CCC2)n1)(c1ccccc1)n1ncc2c1nc(N)n1nc(-c3ccco3)nc21` (stereo not shown) [Example 130, 2-(5-amino-2-(furan-2-yl)-7H-pyrazolo[4,3-e][1,2,4]triazolo[1,5-c]pyrimidin-7-yl)-N-((6-(1-hydroxycyclobutyl)pyridin-2-yl)methyl)-2-phenylpropanamide] showed an IC50 of 6.9 nM.

`CC(C(=O)N[C@H]1COC[C@H]1O)(c1ccccc1)n1ncc2c1nc(N)n1nc(-c3ccco3)nc21` (stereo partly drawn) [Example 107, 2-(5-amino-2-(furan-2-yl)-7H-pyrazolo[4,3-e][1,2,4]triazolo[1,5-c]pyrimidin-7-yl)-N-((3S,4S)-4-hydroxytetrahydrofuran-3-yl)-2-phenylpropanamide] came in with an IC50 of 76.3 nM.

In turn, `C[C@@](C(=O)N[C@H]1CC[C@@H](O)CC1)(c1ccccc1)n1ncc2c1nc(N)n1nc(-c3ccco3)nc21` [Example 76A, (S)-2-(5-amino-2-(furan-2-yl)-7H-pyrazolo[4,3-e][1,2,4]triazolo[1,5-c]pyrimidin-7-yl)-(cis)-N-(4-hydroxycyclohexyl)-2-phenylpropanamide] returned an IC50 of 40.4 nM.

The compound `C[C@](C(=O)NC1CC[S+]([O-])CC1)(c1ccccc1)n1ncc2c1nc(N)n1nc(-c3ccco3)nc21` (single isomer, unassigned) [Example 146B-2] yielded an IC50 of 43.9 nM.

The compound `C[C@](C(=O)O)(c1ccccc1)n1ncc2c1nc(N)n1nc(-c3ccco3)nc21` [Intermediate-Ib, (R)-2-(5-amino-2-(furan-2-yl)-7H-pyrazolo[4,3-e][1,2,4]triazolo[1,5-c]pyrimidin-7-yl)-2-phenylpropanoic acid] showed an IC50 of 567 nM.

In turn, `CC(C(=O)Nc1cccnc1)(c1ccccc1)n1ncc2c1nc(N)n1nc(-c3ccco3)nc21` (stereo not shown) [Example 64, 2-(5-amino-2-(furan-2-yl)-7H-pyrazolo[4,3-e][1,2,4]triazolo[1,5-c]pyrimidin-7-yl)-2-phenyl-N-(pyridin-3-yl)propanamide] had a half-inhibitory concentration (IC50) of 35.1 nM.

As for `CC(C(=O)NCCC1CCOCC1)(c1ccccc1)n1ncc2c1nc(N)n1nc(-c3ccco3)nc21` (stereo not shown) [Example 73, 2-(5-amino-2-(furan-2-yl)-7H-pyrazolo[4,3-e][1,2,4]triazolo[1,5-c]pyrimidin-7-yl)-2-phenyl-N-(2-(tetrahydro-2H-pyran-4-yl)ethyl)propanamide], the midpoint of inhibition, the IC50, lay at 9.3 nM.

As to `CC(C(=O)NC1CCCCC1)(c1ccccc1)n1ncc2c1nc(N)n1nc(-c3ccco3)nc21` (stereo not shown) [Example 43, 2-(5-amino-2-(furan-2-yl)-7H-pyrazolo[4,3-e][1,2,4]triazolo[1,5-c]pyrimidin-7-yl)-N-cyclohexyl-2-phenylpropanamide], inhibition was half-maximal at 4.1 nM (IC50).

As for `COc1ccccc1C(C)(C(=O)N[C@H]1CC[C@@H](O)CC1)n1ncc2c1nc(N)n1nc(-c3ccco3)nc21` (relative stereo) [Example 139, 2-(5-amino-2-(furan-2-yl)-7H-pyrazolo[4,3-e][1,2,4]triazolo[1,5-c]pyrimidin-7-yl)-N-((cis)-4-hydroxycyclohexyl)-2-(2-methoxyphenyl)propanamide], the IC50 stood at 1.9 nM.

For `Cc1ccc(CNC(=O)C(c2ccccc2)n2ncc3c2nc(N)n2nc(-c4ccco4)nc32)cc1` (stereo not shown) [Example 25, 2-(5-amino-2-(furan-2-yl)-7H-pyrazolo[4,3-e][1,2,4]triazolo[1,5-c]pyrimidin-7-yl)-N-(4-methylbenzyl)-2-phenylacetamide], the midpoint of inhibition, the IC50, lay at 1.5 nM.

Compound `CC(C(=O)NC1CCNCC1)(c1ccccc1)n1ncc2c1nc(N)n1nc(-c3ccco3)nc21` (stereo not shown) [Example 101, 2-(5-amino-2-(furan-2-yl)-7H-pyrazolo[4,3-e][1,2,4]triazolo[1,5-c]pyrimidin-7-yl)-2-phenyl-N-(piperidin-4-yl)propanamide] gave a half-inhibitory concentration (IC50) of 35.1 nM.

In the case of `CC(C(=O)N[C@@H]1CC[C@H](O)C1)(c1ccccc1)n1ncc2c1nc(N)n1nc(-c3ccco3)nc21` (stereo partly drawn) [Example 135, 2-(5-amino-2-(furan-2-yl)-7H-pyrazolo[4,3-e][1,2,4]triazolo[1,5-c]pyrimidin-7-yl)-N-((1R,3S)-3-hydroxycyclopentyl)-2-phenylpropanamide], half-maximal inhibition (IC50) was put at 11.2 nM.

Turning to `CC(C(=O)N[C@H]1CC[C@H](O)C1)(c1ccccc1)n1ncc2c1nc(N)n1nc(-c3ccco3)nc21` (stereo partly drawn) [Example 95, 2-(5-amino-2-(furan-2-yl)-7H-pyrazolo[4,3-e][1,2,4]triazolo[1,5-c]pyrimidin-7-yl)-N-((1S,3S)-3-hydroxycyclopentyl)-2-phenylpropanamide], inhibition was half-maximal at 9.5 nM (IC50).

Take `C[C@@H](O)CNC(=O)C(C)(c1ccccc1)n1ncc2c1nc(N)n1nc(-c3ccco3)nc21` (stereo partly drawn) [Example 38, 2-(5-amino-2-(furan-2-yl)-7H-pyrazolo[4,3-e][1,2,4]triazolo[1,5-c]pyrimidin-7-yl)-N—((R)-2-hydroxypropyl)-2-phenylpropanamide]: the IC50 worked out at 22.6 nM.

For `Nc1nc2c(cnn2C(C(=O)NC2CCc3ccccc32)c2ccccc2)c2nc(-c3ccco3)nn12` (stereo not shown) [Example 14, 2-(5-amino-2-(furan-2-yl)-7H-pyrazolo[4,3-e][1,2,4]triazolo[1,5-c]pyrimidin-7-yl)-N-(2,3-dihydro-1H-inden-1-yl)-2-phenylacetamide], inhibition was half-maximal at 6.1 nM (IC50).

`COc1cccnc1CNC(=O)C(C)(c1ccccc1)n1ncc2c1nc(N)n1nc(-c3ccco3)nc21` (stereo not shown) [Example 115, 2-(5-amino-2-(furan-2-yl)-7H-pyrazolo[4,3-e][1,2,4]triazolo[1,5-c]pyrimidin-7-yl)-N-((3-methoxypyridin-2-yl)methyl)-2-phenylpropanamide] yielded an IC50 of 1.9 nM.

In turn, `NC(=O)C(c1ccccc1)n1ncc2c1nc(N)n1nc(-c3ccco3)nc21` (stereo not shown) [Example 19, 2-(5-amino-2-(furan-2-yl)-7H-pyrazolo[4,3-e][1,2,4]triazolo[1,5-c]pyrimidin-7-yl)-2-phenylacetamide] gave a half-inhibitory concentration (IC50) of 4.5 nM.
